# Laboratory results taken from patent publication US20200264182A1, “METHOD FOR DETECTING PROSTATE CANCER” (J-OIL MILLS, INC., priority 2017, published 2020).
# Tests used:
# FAC binding constant = conditions: at 25° C.
# Method: (§1) Details of the FAC method are described in Patent Document 2 filed by some of the present applicants, for example.
# (§2) Binding constants (at 25° C.) of PhoSL, SRL, NSL and LSL belonging to the fucose α1→6 specific lectin for various sugar chains are shown in Tables 2 to 5.
# [1] = FAC binding constant (Table 5 entry); conditions: Table 5: sugar chain having no fucose; at 25° C.
# Method: as §1, §2
# serum fucosylated PSA = assay: Sandwich ELISA, anti-PSA antibody and biotin-labeled lectin; type: binding, human; conditions: for Δ (=A − B): reaction value of Prostate cancer 4 minus Healthy 1; for lectin reaction value B of Healthy 1: serum of Healthy 1; for lectin reaction value A of Prostate cancer 4: serum of Prostate cancer 4, GS 6 (3 + 3)
# Method: The anti-PSA antibody from which sugar chains had been removed was diluted to 5 μg/mL with PBS. 25 μL of this diluted solution was added to each well of an ELISA plate and allowed to stand at 37° C. for 12 hours, and then the additive solution was discarded.
# 150 μL of PBS containing 0.05% Tween 20 (product name: polyoxyethylene sorbitan monolaurate, from Nacalai Tesque, Inc.) was added to each well, and then the additive solution was discarded. This manipulation was repeated three times in total.
# 25 μL of 1% BSA/PBS was added to each well and allowed to stand at 37° C. for 1 hour, and then the additive solution was discarded.
# 150 μL of PBS containing 0.05% Tween 20 was added to each well, and then the additive solution was discarded. This manipulation was repeated three times in total.
# To graph a calibration curve, 25 μL of the fucosylated PSA reference standard diluted with 1% BSA/PBS to a concentration of 0 to 200 ng/mL was added to each well and allowed to stand at room temperature for 1 hour, and then the additive solution was discarded. In addition, to detect the fucosylated PSA in the serum of the subject by the lectin, 25 μL of serum of “Healthy 1” and “Prostate cancer 4” 2-fold diluted with PBS was added to each well and allowed to stand at room temperature for 1 hour, and then the additive solution was discarded.
# In Reference Example 1, 25 μL of a biotin-labeled PhoSL diluted to 0.1 μg/mL with 0.1% BSA/PBS (pH 7.4) was added to each well and allowed to stand at 4° C. for 30 minutes, and then the additive solution was discarded. In Example 1, 25 μL of a biotin-labeled PhoSL diluted to 0.1 μg/mL with 0.1% BSA/10-fold diluted PBS+glycine-NaOH (pH 9.6) was added to each well and allowed to stand at 4° C. for 30 minutes, and then the additive solution was discarded.
# 25 μL of a horseradish peroxidase (HRP)-labeled streptavidin solution (from Vector Laboratories, Inc., concentration: 0.4 μg/mL, in 1% BSA/PBS) was added to each well and allowed to stand at room temperature for 30 minutes, and then the additive solution was discarded.
# 25 μL of chromogenic substrate for HRP (product name: TMB, from Kirkegaard & Perry Laboratories, Inc.) was added to each well and allowed to stand at room temperature for 10 minutes.
# 25 μL of 1M phosphoric acid was added to terminate the reaction.
# Absorbance (Ab) at 450 nm and 630 nm was measured using a plate reader, and a measurement (Ab450-630) was obtained.
# A calibration curve was graphed by plotting signals (reaction values, Ab450-630) of the fucosylated PSA reference standard with the biotin-labeled PhoSL. A Signal (Ab450-630) of the biotin-labeled PhoSL corresponding to the fucosylated PSA concentration of 10 ng/mL was defined as 10 U/mL.
# The signals of biotin-labeled PhoSL (Ab450-630) for the serum fucosylated PSA in the subject samples A were assigned to the calibration curve to calculate reaction values (unit: U/mL).
# The PhoSL reaction values for the subject samples A were measured by the same operation as in Example 1. From the PhoSL reaction values, an average value and a median value were determined. Furthermore, a standard cutoff value (89.7 U/mL) was used to determine a detection rate (positive rate) of the prostate cancer patients, and a false detection rate (false positive rate) of the healthy persons.
# Comparative Example 2 in Table 9 indicates results of detecting the serum fucosylated PSA using AAL (AAL reaction values) in the subject samples A. Specifically, in Reference Example 1, AAL reaction values were measured in the same manner as in Reference Example 1 except that the biotin-labeled PhoSL was replaced with a biotin-labeled AAL. A standard cut-off value for the AAL reaction values was 894.8 U/mL. As in Example 2, an average value, a median value, a positive rate and a false positive rate were determined from the AAL reaction values.
# [2] = sugar chain having fucose other than α1→6 fucose
substance,measurement,setting,value
"NSL: fucose α1→6 specific lectin that can be extracted from Naematoloma sublateritium, SEQ ID No. 4 or 5",Binding constant for sugar chain No. 728,FAC binding constant; Table 3: sugar chain having fucose other than α1→6 fucose,<1000 M⁻¹
same,Binding constant for sugar chain No. 419,FAC binding constant; [2],<1000 M⁻¹
same,Binding constant for sugar chain No. 420,FAC binding constant; [2],<1000 M⁻¹
same,Binding constant for sugar chain No. 718,FAC binding constant; [2],<1000 M⁻¹
same,Binding constant for sugar chain No. 719,FAC binding constant; [2],<1000 M⁻¹
same,Binding constant for sugar chain No. 720,FAC binding constant; [2],<1000 M⁻¹
same,Binding constant for sugar chain No. 721,FAC binding constant; [2],<1000 M⁻¹
same,Binding constant for sugar chain No. 722,FAC binding constant; [2],<1000 M⁻¹
same,Binding constant for sugar chain No. 723,FAC binding constant; [2],<1000 M⁻¹
same,Binding constant for sugar chain No. 726,FAC binding constant; [2],<1000 M⁻¹
same,Binding constant for sugar chain No. 727,FAC binding constant; [2],<1000 M⁻¹
same,Binding constant for sugar chain No. 729,FAC binding constant; [2],<1000 M⁻¹
same,Binding constant for sugar chain No. 730,FAC binding constant; [2],<1000 M⁻¹
same,Binding constant for sugar chain No. 731,FAC binding constant; [2],<1000 M⁻¹
same,Binding constant for sugar chain No. 739,FAC binding constant; [2],<1000 M⁻¹
same,Binding constant for sugar chain No. 909,FAC binding constant; [2],<1000 M⁻¹
same,Binding constant for sugar chain No. 910,FAC binding constant; [2],<1000 M⁻¹
same,Binding constant for sugar chain No. 931,FAC binding constant; [2],<1000 M⁻¹
same,Binding constant for sugar chain No. 932,FAC binding constant; [2],<1000 M⁻¹
same,Binding constant for sugar chain No. 933,FAC binding constant; [2],<1000 M⁻¹
same,Binding constant for sugar chain No. 001,FAC binding constant; sugar chain having no fucose,<1000 M⁻¹
same,Binding constant for sugar chain No. 002,FAC binding constant; sugar chain having no fucose,<1000 M⁻¹
same,Binding constant for sugar chain No. 003,FAC binding constant; sugar chain having no fucose,<1000 M⁻¹
same,Binding constant for sugar chain No. 004,FAC binding constant; sugar chain having no fucose,<1000 M⁻¹
same,Binding constant for sugar chain No. 005,FAC binding constant; sugar chain having no fucose,<1000 M⁻¹
same,Binding constant for sugar chain No. 006,FAC binding constant; sugar chain having no fucose,<1000 M⁻¹
same,Binding constant for sugar chain No. 007,FAC binding constant; sugar chain having no fucose,<1000 M⁻¹
same,Binding constant for sugar chain No. 008,FAC binding constant; sugar chain having no fucose,<1000 M⁻¹
same,Binding constant for sugar chain No. 009,FAC binding constant; sugar chain having no fucose,<1000 M⁻¹
same,Binding constant for sugar chain No. 010,FAC binding constant; sugar chain having no fucose,<1000 M⁻¹
same,Binding constant for sugar chain No. 011,FAC binding constant; sugar chain having no fucose,<1000 M⁻¹
same,Binding constant for sugar chain No. 012,FAC binding constant; sugar chain having no fucose,<1000 M⁻¹
same,Binding constant for sugar chain No. 013,FAC binding constant; sugar chain having no fucose,<1000 M⁻¹
same,Binding constant for sugar chain No. 014,FAC binding constant; sugar chain having no fucose,<1000 M⁻¹
same,Binding constant for sugar chain No. 101,FAC binding constant; sugar chain having no fucose,<1000 M⁻¹
same,Binding constant for sugar chain No. 103,FAC binding constant; sugar chain having no fucose,<1000 M⁻¹
same,Binding constant for sugar chain No. 104,FAC binding constant; sugar chain having no fucose,<1000 M⁻¹
same,Binding constant for sugar chain No. 105,FAC binding constant; sugar chain having no fucose,<1000 M⁻¹
same,Binding constant for sugar chain No. 107,FAC binding constant; sugar chain having no fucose,<1000 M⁻¹
same,Binding constant for sugar chain No. 108,FAC binding constant; sugar chain having no fucose,<1000 M⁻¹
same,Binding constant for sugar chain No. 301,FAC binding constant; sugar chain having no fucose,<1000 M⁻¹
same,Binding constant for sugar chain No. 304,FAC binding constant; sugar chain having no fucose,<1000 M⁻¹
same,Binding constant for sugar chain No. 305,FAC binding constant; sugar chain having no fucose,<1000 M⁻¹
same,Binding constant for sugar chain No. 307,FAC binding constant; sugar chain having no fucose,<1000 M⁻¹
same,Binding constant for sugar chain No. 308,FAC binding constant; sugar chain having no fucose,<1000 M⁻¹
same,Binding constant for sugar chain No. 313,FAC binding constant; sugar chain having no fucose,<1000 M⁻¹
same,Binding constant for sugar chain No. 314,FAC binding constant; sugar chain having no fucose,<1000 M⁻¹
same,Binding constant for sugar chain No. 323,FAC binding constant; sugar chain having no fucose,<1000 M⁻¹
same,Binding constant for sugar chain No. 501,FAC binding constant; sugar chain having no fucose,<1000 M⁻¹
same,Binding constant for sugar chain No. 502,FAC binding constant; sugar chain having no fucose,<1000 M⁻¹
same,Binding constant for sugar chain No. 503,FAC binding constant; sugar chain having no fucose,<1000 M⁻¹
same,Binding constant for sugar chain No. 504,FAC binding constant; sugar chain having no fucose,<1000 M⁻¹
same,Binding constant for sugar chain No. 701,FAC binding constant; sugar chain having no fucose,<1000 M⁻¹
same,Binding constant for sugar chain No. 702,FAC binding constant; sugar chain having no fucose,<1000 M⁻¹
same,Binding constant for sugar chain No. 703,FAC binding constant; sugar chain having no fucose,<1000 M⁻¹
same,Binding constant for sugar chain No. 704,FAC binding constant; sugar chain having no fucose,<1000 M⁻¹
same,Binding constant for sugar chain No. 705,FAC binding constant; sugar chain having no fucose,<1000 M⁻¹
same,Binding constant for sugar chain No. 706,FAC binding constant; sugar chain having no fucose,<1000 M⁻¹
same,Binding constant for sugar chain No. 707,FAC binding constant; sugar chain having no fucose,<1000 M⁻¹
same,Binding constant for sugar chain No. 708,FAC binding constant; sugar chain having no fucose,<1000 M⁻¹
same,Binding constant for sugar chain No. 709,FAC binding constant; sugar chain having no fucose,<1000 M⁻¹
same,Binding constant for sugar chain No. 710,FAC binding constant; sugar chain having no fucose,<1000 M⁻¹
same,Binding constant for sugar chain No. 711,FAC binding constant; sugar chain having no fucose,<1000 M⁻¹
same,Binding constant for sugar chain No. 712,FAC binding constant; sugar chain having no fucose,<1000 M⁻¹
same,Binding constant for sugar chain No. 713,FAC binding constant; sugar chain having no fucose,<1000 M⁻¹
same,Binding constant for sugar chain No. 715,FAC binding constant; sugar chain having no fucose,<1000 M⁻¹
same,Binding constant for sugar chain No. 716,FAC binding constant; sugar chain having no fucose,<1000 M⁻¹
same,Binding constant for sugar chain No. 717,FAC binding constant; sugar chain having no fucose,<1000 M⁻¹
same,Binding constant for sugar chain No. 724,FAC binding constant; sugar chain having no fucose,<1000 M⁻¹
same,Binding constant for sugar chain No. 725,FAC binding constant; sugar chain having no fucose,<1000 M⁻¹
same,Binding constant for sugar chain No. 732,FAC binding constant; sugar chain having no fucose,<1000 M⁻¹
same,Binding constant for sugar chain No. 733,FAC binding constant; sugar chain having no fucose,<1000 M⁻¹
same,Binding constant for sugar chain No. 734,FAC binding constant; sugar chain having no fucose,<1000 M⁻¹
same,Binding constant for sugar chain No. 735,FAC binding constant; sugar chain having no fucose,<1000 M⁻¹
same,Binding constant for sugar chain No. 736,FAC binding constant; sugar chain having no fucose,<1000 M⁻¹
same,Binding constant for sugar chain No. 737,FAC binding constant; sugar chain having no fucose,<1000 M⁻¹
same,Binding constant for sugar chain No. 738,FAC binding constant; sugar chain having no fucose,<1000 M⁻¹
same,Binding constant for sugar chain No. 901,FAC binding constant; sugar chain having no fucose,<1000 M⁻¹
same,Binding constant for sugar chain No. 902,FAC binding constant; sugar chain having no fucose,<1000 M⁻¹
same,Binding constant for sugar chain No. 903,FAC binding constant; sugar chain having no fucose,<1000 M⁻¹
same,Binding constant for sugar chain No. 905,FAC binding constant; sugar chain having no fucose,<1000 M⁻¹
same,Binding constant for sugar chain No. 906,FAC binding constant; sugar chain having no fucose,<1000 M⁻¹
same,Binding constant for sugar chain No. 907,FAC binding constant; sugar chain having no fucose,<1000 M⁻¹
same,Binding constant for sugar chain No. 015,FAC binding constant; sugar chain having α1→6 fucose,36000 M⁻¹
same,Binding constant for sugar chain No. 201,FAC binding constant; sugar chain having α1→6 fucose,38000 M⁻¹
same,Binding constant for sugar chain No. 202,FAC binding constant; sugar chain having α1→6 fucose,39000 M⁻¹
same,Binding constant for sugar chain No. 203,FAC binding constant; sugar chain having α1→6 fucose,30000 M⁻¹
same,Binding constant for sugar chain No. 401,FAC binding constant; sugar chain having α1→6 fucose,51000 M⁻¹
same,Binding constant for sugar chain No. 402,FAC binding constant; sugar chain having α1→6 fucose,36000 M⁻¹
same,Binding constant for sugar chain No. 403,FAC binding constant; sugar chain having α1→6 fucose,52000 M⁻¹
same,Binding constant for sugar chain No. 404,FAC binding constant; sugar chain having α1→6 fucose,43000 M⁻¹
same,Binding constant for sugar chain No. 405,FAC binding constant; sugar chain having α1→6 fucose,50000 M⁻¹
same,Binding constant for sugar chain No. 406,FAC binding constant; sugar chain having α1→6 fucose,23000 M⁻¹
same,Binding constant for sugar chain No. 410,FAC binding constant; sugar chain having α1→6 fucose,220000 M⁻¹
same,Binding constant for sugar chain No. 413,FAC binding constant; sugar chain having α1→6 fucose,280000 M⁻¹
same,Binding constant for sugar chain No. 418,FAC binding constant; sugar chain having α1→6 fucose,220000 M⁻¹
same,Binding constant for sugar chain No. 601,FAC binding constant; sugar chain having α1→6 fucose,240000 M⁻¹
same,Binding constant for sugar chain No. 602,FAC binding constant; sugar chain having α1→6 fucose,120000 M⁻¹
same,Binding constant for sugar chain No. 728,[1],<1000 M⁻¹
same,Δ (=A − B),serum fucosylated PSA; pH in lectin reaction 7.4,222 U/mL
same,Δ (=A − B),serum fucosylated PSA; pH in lectin reaction 9.6,240.3 U/mL
same,lectin reaction value B of Healthy 1,serum fucosylated PSA; pH in lectin reaction 7.4,177.7 U/mL
same,lectin reaction value B of Healthy 1,serum fucosylated PSA; pH in lectin reaction 9.6,42.3 U/mL
same,lectin reaction value A of Prostate cancer 4,serum fucosylated PSA; pH in lectin reaction 7.4,399.7 U/mL
same,lectin reaction value A of Prostate cancer 4,serum fucosylated PSA; pH in lectin reaction 9.6,282.6 U/mL
